Assay results as given in patent publication US6841577B2, “Pesticidal activity of plant essential oils and their constituents” (Ecosmart Technologies, Inc., priority 1999, dated 2005).

What was measured:
American cockroach [1] = test: Lethal effect of injected test chemicals; type: in vivo; conditions: dead/10
Method: Further studies were conducted to determine the LD 50 of purified naturally occurring plant essential oils and/or their constituents. […] Ten roaches per dose were used. Another group of ten roaches received the same volume of vehicle only (0.5 μl) and used as a control group. Mortality was recorded 24, 48, and 72 hours after exposure.

[2] = test system: octopamine receptor sites; test: 3H-OA binding to ventral nerve cord / synaptosomal membrane protein; parameters: species or system American cockroach (Periplaneta americana); conditions: for cpm 3H-OA/500 μg protein: Table 1, solvent control 1280 ± 259
Method: Different concentrations of unlabeled octopamine (OA) (20, 30, 40, 50, 60, 100 ng) were tested on the binding activity as a positive control. Test chemicals were dissolved in acetone before the assay. Different concentrations of the test chemicals were added directly to the protein preparation from ventral nerve cord. The same amount of solvent (1 μl 0.1%) were added to the control samples. All assays with test chemicals were run in the presence and absence of 50 ng OA. All chemicals were added to the protein extract 20 min prior the addition of radio labeled ^3H-OA(100,000 cpm/sample). After 30 min at 24° C. of the addition of ^3H-OA, the reaction was stopped by the addition of ice-cold Tris buffer, and the samples were filtered through GF/C membrane using water vacuum. After two washes each with 5 ml Tris buffer, the membrane was removed, air dried and the radioactivity was counted in 4 ml liquid scintillation solution. The specific binding was calculated as the difference between the values in the presence and absence of unlabeled OA. All data are calculated as the mean±standard deviation of 5 assays.
Additional tests were conducted on radio labeled octopamine using other purified naturally occurring materials as given in Tables 2 and 3.

[3] = test system: heart of American cockroach (octopamine receptors); test: Heartbeat after application to thoracic segment; type: in vivo; conditions: mean ±SD of three roaches
Method: To further establish the effect of the purified naturally occurring plant essential oils and/or their constituents on the American cockroach, a 300 μg amount of the chemical was applied to the thoracic segment of an intact and alive American cockroach. The heart beats/30 seconds was measured. The heart of the cockroach is known to have a high concentration of octopamine receptors and the heart beat is considered an important measurement to indicate the effect of the applied chemicals to the octopamine receptors.

American cockroaches = test: Cross walk testing with eugenol in acetone or Isopar M; type: in vivo, American cockroach; parameters: KD (knockdown), of 5: unit not given beside the values
Method: Additional “cross walk” testing was conducted with eugenol. Table 18 provides data for 5% (by volume) eugenol in acetone and Table 19 provides data for 1% eugenol in acetone wherein five (5) American cockroaches were placed in the screened jars after the acetone had evaporated. IM=immobilized; KD=knockdown; D=dead; L=live (no effect).
Table 20 provides data for 5% (by volume) eugenol in 95% Isopar M and Table 21 provides data for 1% (by volume) eugenol in 99% Isopar M. Isopar M is an isoparaffinic hydrocarbon sold by Exxon Corporation.

American cockroach [4] = test: Cross walk jar test on pre-treated surface; type: in vivo; conditions: Periplaneta americana, 24 h
Method: In the test, a known amount of the test material was dissolved in a known volume of acetone and applied to small jars and all inner bottom surfaces were covered. The bottom surface of each jar is approximately 250 cm^2. One hour after the acetone had completely evaporated, five American cockroaches were introduced to each jar. Control jars were treated exactly as above but with the known amount of acetone only.
The results of the “cross walk” jar tests are in Table 8 in which the “4-blend” was dispersed as an aerosol and a dust in the jar.
In this test, the acetone solution of the test material was placed in the jar and the roach inserted into the jar after the acetone had evaporated.
Mortality was measured 24 hours after exposure.
The “4-blend” and the individual constituents of the “4-blend” were tested using 10 cockroaches for each “cross walk” treatment. In addition, pyrethrins were tested separately and mixed with the various components.
A concentration of 100 mg/jar was used for each individual alone. In the co-treatment experiment without pyrethrins, 20 mg/jar for each chemical was used. In the cotreatment experiment with pyrethrins, 20 mg/jar for the naturally occurring plant material was used. Pyrethrins was used at 2 mg/jar. […] It was noted above that the mortality is dependent upon concentration. […] Some synergism is found between pyrethrins and either α-terpineol or benzyl alcohol.

[5] = test system: 2nd instar green peach aphid nymphs; test: Cabbage leaf disc bioassay; type: in vivo
Method: A bioassay similar to that for S. litura larvae was used for additional larvae. Cabbage leaf discs were dipped in emulsified aqueous solutions, diluted 1:200 in water, on which 2nd instar green peach aphid nymphs were placed. For each treatment there was 10 aphids per disc with 5 replicates; each experiment was replicated in time (successive days) from 3-5 times. After 24 hours, aphids were reported as being (1) on the leaf disc and feeding; (2) alive, but walking off the disc; or (3) dead. In the field, aphids which cease feeding and abandon a host plant are very unlikely to survive.

[6] = 1% eugenol in 99% Isopar M, 2 min
[7] = 1% eugenol in 99% Isopar M, 5 min
[8] = 1% eugenol in 99% Isopar M, 45 min
[9] = 5% eugenol in 95% Isopar M, 2 min
[10] = 5% eugenol in 95% Isopar M, 5 min

## C=CCc1ccc(O)c(OC)c1 [eugenol]
American cockroach [1]; 300 μg
  Mortality 24 hr after treatment: 2/10
American cockroach [1]; 400 μg
  Mortality 24 hr after treatment: 3/10
American cockroach [1]; 500 μg/roach injected into thoracic and abdominal segments, 24 hr.
  Mortality: 6/10
American cockroach [1]; 500 μg/roach injected, 48 hr.
  Mortality: 6/10
American cockroach [1]; 500 μg/roach injected, 72 hr., control 1/10
  Mortality: 6/10
American cockroach [1]; 500 μg
  Mortality 24 hr after treatment: 5/10
American cockroach [1]; 600 μg
  Mortality 24 hr after treatment: 8/10
American cockroach [1]; 700 μg
  Mortality 24 hr after treatment: 9/10
[2]; 300 ng test chemical
  cpm 3H-OA/500 μg protein: 818 ± 93 cpm 3H-OA/500 μg protein
[2]; 500 ng test chemical
  cpm 3H-OA/500 μg protein: 730 ± 59 cpm 3H-OA/500 μg protein
[2]; 700 ng test chemical
  cpm 3H-OA/500 μg protein: 453 ± 39 cpm 3H-OA/500 μg protein
[2]; 1000 ng test chemical
  cpm 3H-OA/500 μg protein: 226 ± 15 cpm 3H-OA/500 μg protein
[2]; 1500 ng test chemical
  cpm 3H-OA/500 μg protein: 200 ± 17 cpm 3H-OA/500 μg protein
[2]; based on the binding data of Tables 1-3
  classification with respect to octopamine receptor sites (OAR): high OAR antagonists
[3]; 300 μg applied to thoracic segment
  Heart beat/30 sec 30 min after treatment: 24 ± 1 beat/30 sec
[3]; baseline of the same roaches
  Heart beat/30 sec before treatment: 55 ± 3 beat/30 sec
American cockroaches; [6]
  D (dead), of 5: 2/5
  IM (immobilized), of 5: 1/5
  KD (knockdown), of 5: 1/5
American cockroaches; [7]
  D (dead), of 5: 3/5
  IM (immobilized), of 5: 1/5
American cockroaches; 1% eugenol in 99% Isopar M, 15 min
  IM (immobilized), of 5: 2/5 IM
American cockroaches; 1% eugenol in 99% Isopar M, 30 min
  IM (immobilized), of 5: 2/5 IM
American cockroaches; [8]
  D (dead), of 5: 4/5
  IM (immobilized), of 5: 1/5
American cockroaches; 1% eugenol in 99% Isopar M, 1 hr.
  IM (immobilized), of 5: 1/5 IM
American cockroaches; 1% eugenol in 99% Isopar M, 1.5 hr.
  D (dead), of 5: 5/5 D
American cockroaches; 1% eugenol in acetone, 2 min
  L (live, no effect), of 5: 5/5 L
American cockroaches; 1% eugenol in acetone, 30 min
  L (live, no effect), of 5: 5/5 L
American cockroaches; 1% eugenol in acetone, 45 min
  IM (immobilized), of 5: 3/5 IM
American cockroaches; 1% eugenol in acetone, 1 hr.
  IM (immobilized), of 5: 3/5
  KD (knockdown), of 5: 1/5
American cockroaches; 1% eugenol in acetone, 1.5 hr.
  IM (immobilized), of 5: 3/5
  KD (knockdown), of 5: 1/5
American cockroaches; 1% eugenol in acetone, 2 hr.
  IM (immobilized), of 5: 3/5
  KD (knockdown), of 5: 1/5
American cockroaches; 1% eugenol in acetone, 4 hr.
  IM (immobilized), of 5: 3/5
  KD (knockdown), of 5: 1/5
American cockroaches; 1% eugenol in acetone, 24 hr., (KD/IM recover)
  IM (immobilized), of 5: 2/5 IM (KD/IM recover)
American cockroaches; [9]
  D (dead), of 5: 2/5
  IM (immobilized), of 5: 1/5
American cockroaches; [10]
  D (dead), of 5: 4/5
  IM (immobilized), of 5: 1/5
American cockroaches; 5% eugenol in 95% Isopar M, 10 min
  D (dead), of 5: 5/5 D
American cockroaches; 5% eugenol in acetone, 2 min
  IM (immobilized), of 5: 1/5 IM
American cockroaches; 5% eugenol in acetone, 5 min
  IM (immobilized), of 5: 1/5 IM
American cockroaches; 5% eugenol in acetone, 15 min
  IM (immobilized), of 5: 3/5 IM
American cockroaches; 5% eugenol in acetone, 30 min
  IM (immobilized), of 5: 3/5
  KD (knockdown), of 5: 1/5
American cockroaches; 5% eugenol in acetone, 45 min
  IM (immobilized), of 5: 3/5
  KD (knockdown), of 5: 1/5
American cockroaches; 5% eugenol in acetone, 1 hr.
  IM (immobilized), of 5: 4/5
  KD (knockdown), of 5: 1/5
American cockroaches; 5% eugenol in acetone, 1.5 hr.
  IM (immobilized), of 5: 4/5
  KD (knockdown), of 5: 1/5
American cockroaches; 5% eugenol in acetone, 2 hr.
  IM (immobilized), of 5: 4/5
  KD (knockdown), of 5: 1/5
American cockroaches; 5% eugenol in acetone, 4 hr.
  D (dead), of 5: 4/5
  KD (knockdown), of 5: 1/5
American cockroaches; 5% eugenol in acetone, 24 hr.
  D (dead), of 5: 5/5 D
American cockroaches; 5% eugenol, in both modes of use (acetone, Isopar M)
  effectiveness as a pesticide for American cockroaches, in words: highly effective
American cockroach [4]
  mortality at 100 mg: 100%
[5]; 1:200 dilution
  activity on green peach aphid nymphs, in words: somewhat more active
[5]; diluted 1:200 in water, after 24 hours, n = 250, Table 16, control 23.4
  Percentage of aphids Walking (off disc): 38.3%
[5]; diluted 1:200 in water, after 24 hours, n = 250, Table 16, control 24.8
  Percentage of aphids Dead: 44.3%
[5]; diluted 1:200 in water, after 24 hours, n = 250, Table 16, control 51.7
  Percentage of aphids Feeding: 17.7%
